Measured values from paper PMC9737972, “Dual LSD1 and HDAC6 Inhibition Induces Doxorubicin Sensitivity in Acute Myeloid Leukemia Cells” (Cancers, 2022).
Like-named read-outs stand apart in the source and are kept apart here.

Key:
K-562 = experiment: Cell Titer-Glo cell viability, K-562; format: cell-based; details: Homo sapiens, read-out: IC50 cell viability K-562
[1] = cited from earlier work
MOLM-13 [2] = experiment: Combination treatment with doxorubicin, MOLM-13 cell viability; format: cell-based; details: iDual 0.5 μM, iHDAC6 0.5 μM, GSK2879552 1.25 μM, ricolinostat […], 72 h then + doxorubicin 2 nM 48 h
Jurkat = experiment: Cell Titer-Glo cell viability, Jurkat; format: cell-based; details: Homo sapiens, 120 h, read-out: IC50 cell viability Jurkat
LSD1 [3] = target: T1, LSD1 (Homo sapiens, UniProt O60341); experiment: LSD1 MALDI-TOF enzyme assay; format: biochemical; parameters: made in house; details: ± standard error, three independent measurements
THP-1 = experiment: Cell Titer-Glo cell viability, THP-1; format: cell-based; details: Homo sapiens, read-out: IC50 cell viability THP-1
[4] = test system: LSD1 and HDAC substrates in THP-1 cells; experiment: Western blot of methylation and acetylation levels of LSD1 and HDAC substrates; format: cell-based; details: for nuclear histone H3 acetylation (H3K18ac and H3K27ac levels), change vs DMSO: 24 h (ricolinostat 0.75 μM or 4 μM)
[5] = target: T2, Human recombinant C-ter-His-FLAG-HDAC1 (Homo sapiens, UniProt Q13547); experiment: HDAC-Glo I/II enzyme assay, HDAC1; format: biochemical; details: ± standard error, three independent measurements
T2 construct: His (C); FLAG (C); purchased BPS Bioscience 50051

HDAC-3/NcoR2 = target: T3, HDAC-3/NcoR2 (Homo sapiens, UniProt O15379); experiment: HDAC-Glo I/II enzyme assay, HDAC3; format: biochemical; details: ± standard error, three independent measurements
T3 construct: purchased BPS Bioscience 50003

MOLM-13 [6] = experiment: Cell Titer-Glo cell viability, MOLM-13; format: cell-based; details: Homo sapiens, read-out: IC50 cell viability MOLM-13
MAOs = details: cited from earlier work
LSD2 = details: cited from earlier work
LSD1 [7] = target: T1, LSD1; experiment: Cellular thermal shift assay (CETSA), LSD1; format: cell-based; parameters: endogenous in cells; host or cells: THP-1; details: THP-1 cells, 1 h; 4 μM (methods, Figure 2), Figure S14 legend 500 nM
Method: (§1) THP-1 cells, 1 × 10^7 cells at a density of 1 × 10^6 cells/mL, were treated with 4 μM of test compounds (1 h, 37 °C, 5% CO2). Cells were centrifuged, and the pellet was resuspended with 1 × Phosphate Buffer Saline (Gibco, Grand Island, NY, USA, #10010023) containing 1 × Protease Inhibitor Cocktail (Cell Signaling Technology, Beverly, MA, USA, #5871) and 1 mM phenylmethylsulfonyl fluoride (PMSF, Sigma Aldrich, St. Louis, MO, USA, #10837091001). The suspension volume was divided equally and heated for 3 min at 43–64 °C in a T100 Thermal Cycler (Bio-rad, Hercules, CA, USA). For protein extraction, cells were snap-frozen using liquid nitrogen, thawed twice (25 °C, 1 min), then centrifuged (20,000× g, 15 min, 4 °C). Following centrifugation, protein containing supernatants were denatured at 70 °C for 10 min and loaded on SDS-PAGE gels (Bio-Rad, Hercules, CA, USA, 161-0317). After electrophoresis (100 V and 60 min), proteins were transferred onto PVDF membrane (Bio-Rad #1620177) at 200 mA for 180 min and immunoblotted with primary antibodies (1:10,000 dilution for anti-LSD1 Antibody ab129195 [EPR6825], 1:1000 dilution for Anti-HDAC6 Antibody CST 7558, 1:1000 dilution for Anti-HDAC1 Antibody ab53091, 1:1000 dilution for Anti-HDAC8 Antibody ab187139, 1:5000 dilution for Anti-beta Actin Antibody ab8227) overnight at 4 °C. The next day, membranes were incubated with HRP-conjugated secondary antibodies (1:5000 dilution for Abcam, Cambridge, UK, ab205718) for 1 h at room temperature. The signal was detected with BIORAD Chemi-Doc XRS+ System and by using Immobilon Forte Western HRP Substrate (WBLUF0500).

C-terminal His-tag-HDAC8 = target: T4, C-terminal His-tag-HDAC8 (Homo sapiens, UniProt Q9BY41); experiment: HDAC-Glo I/II enzyme assay, HDAC8; format: biochemical; details: ± standard error, three independent measurements
T4 construct: His (C); purchased BPS Bioscience 50008
T4 sequence (Q9BY41 1-377): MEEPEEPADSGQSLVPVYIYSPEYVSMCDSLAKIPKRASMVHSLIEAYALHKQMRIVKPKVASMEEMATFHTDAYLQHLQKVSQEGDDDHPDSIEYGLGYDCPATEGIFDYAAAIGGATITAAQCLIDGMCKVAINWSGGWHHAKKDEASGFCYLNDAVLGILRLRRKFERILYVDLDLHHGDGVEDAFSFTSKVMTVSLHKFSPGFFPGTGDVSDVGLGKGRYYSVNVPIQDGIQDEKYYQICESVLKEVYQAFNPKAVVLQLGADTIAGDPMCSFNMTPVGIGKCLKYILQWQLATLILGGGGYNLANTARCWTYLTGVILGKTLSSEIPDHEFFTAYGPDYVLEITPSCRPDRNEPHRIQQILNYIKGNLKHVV

N-ter-GST-HDAC-6 = target: T5, N-ter-GST-HDAC-6 (Homo sapiens, UniProt Q9UBN7); experiment: HDAC-Glo I/II enzyme assay, HDAC6; format: biochemical; details: ± standard error, three independent measurements
T5 construct: GST (N); purchased BPS Bioscience 50006
T5 sequence (Q9UBN7 1-1215): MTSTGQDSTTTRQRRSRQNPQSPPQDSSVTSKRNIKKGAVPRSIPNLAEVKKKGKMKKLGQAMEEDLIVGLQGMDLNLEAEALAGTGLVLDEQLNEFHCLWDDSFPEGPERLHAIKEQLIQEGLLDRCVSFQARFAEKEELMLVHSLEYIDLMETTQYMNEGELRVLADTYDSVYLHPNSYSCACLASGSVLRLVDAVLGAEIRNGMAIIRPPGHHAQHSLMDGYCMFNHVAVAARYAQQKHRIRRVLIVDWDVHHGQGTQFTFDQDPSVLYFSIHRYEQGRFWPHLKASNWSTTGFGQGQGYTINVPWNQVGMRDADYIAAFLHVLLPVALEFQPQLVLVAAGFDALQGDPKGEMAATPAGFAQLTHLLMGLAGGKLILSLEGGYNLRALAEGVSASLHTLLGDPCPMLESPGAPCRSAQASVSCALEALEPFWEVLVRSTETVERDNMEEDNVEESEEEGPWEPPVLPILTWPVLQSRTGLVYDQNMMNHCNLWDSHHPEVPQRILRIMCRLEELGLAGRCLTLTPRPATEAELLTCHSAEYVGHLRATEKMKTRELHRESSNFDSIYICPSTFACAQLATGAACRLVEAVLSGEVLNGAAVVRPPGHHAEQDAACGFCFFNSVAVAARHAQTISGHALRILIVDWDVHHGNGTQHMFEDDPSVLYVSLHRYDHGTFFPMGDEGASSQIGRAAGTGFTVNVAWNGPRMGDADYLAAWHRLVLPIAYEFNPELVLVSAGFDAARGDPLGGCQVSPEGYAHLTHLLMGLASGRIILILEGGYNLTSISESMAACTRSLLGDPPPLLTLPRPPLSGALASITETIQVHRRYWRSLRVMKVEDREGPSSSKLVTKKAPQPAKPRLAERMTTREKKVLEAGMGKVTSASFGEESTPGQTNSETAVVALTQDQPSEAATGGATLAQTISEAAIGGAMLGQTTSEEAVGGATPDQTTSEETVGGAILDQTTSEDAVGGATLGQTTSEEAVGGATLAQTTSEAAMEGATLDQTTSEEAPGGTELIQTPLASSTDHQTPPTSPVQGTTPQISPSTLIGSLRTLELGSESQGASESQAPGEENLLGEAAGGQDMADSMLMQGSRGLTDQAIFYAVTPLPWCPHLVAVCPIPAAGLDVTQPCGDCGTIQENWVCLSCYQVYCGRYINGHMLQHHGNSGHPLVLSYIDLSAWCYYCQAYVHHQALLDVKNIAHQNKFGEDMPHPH

HDAC8 = target: T6, HDAC8 (Homo sapiens, UniProt Q9BY41); experiment: Cellular thermal shift assay (CETSA), HDAC8; format: cell-based; details: THP-1 cells, 1 h; 4 μM (methods, Figure 2), Figure S14 legend 500 nM
T6 construct: endogenous in cells; host or cells: THP-1
T6 sequence (Q9BY41 1-377): T4 sequence (Q9BY41 1-377)
Method: (§2) THP-1 cells, 1 × 10^7 cells at a density of 1 × 10^6 cells/mL, were treated with 4 μM of test compounds (1 h, 37 °C, 5% CO2). Cells were centrifuged, and the pellet was resuspended with 1 × Phosphate Buffer Saline (Gibco, Grand Island, NY, USA, #10010023) containing 1 × Protease Inhibitor Cocktail (Cell Signaling Technology, Beverly, MA, USA, #5871) and 1 mM phenylmethylsulfonyl fluoride (PMSF, Sigma Aldrich, St. Louis, MO, USA, #10837091001). The suspension volume was divided equally and heated for 3 min at 43–64 °C in a T100 Thermal Cycler (Bio-rad, Hercules, CA, USA). For protein extraction, cells were snap-frozen using liquid nitrogen, thawed twice (25 °C, 1 min), then centrifuged (20,000× g, 15 min, 4 °C). Following centrifugation, protein containing supernatants were denatured at 70 °C for 10 min and loaded on SDS-PAGE gels (Bio-Rad, Hercules, CA, USA, 161-0317). […] The signal was detected with BIORAD Chemi-Doc XRS+ System and by using Immobilon Forte Western HRP Substrate (WBLUF0500).

HDAC6 [8] = target: T7, HDAC6 (Homo sapiens, UniProt Q9UBN7); experiment: Cellular thermal shift assay (CETSA), HDAC6; format: cell-based; details: THP-1 cells, 1 h; 4 μM (methods, Figure 2), Figure S14 legend 500 nM
T7 construct: endogenous in cells; host or cells: THP-1
T7 sequence (Q9UBN7 1-1215): T5 sequence (Q9UBN7 1-1215)
Method: as §1

HDAC1 = target: T8, HDAC1 (Homo sapiens, UniProt Q13547); experiment: Cellular thermal shift assay (CETSA), HDAC1; format: cell-based; details: THP-1 cells, 1 h; 4 μM (methods), Figure S14 legend 500 nM
T8 construct: endogenous in cells; host or cells: THP-1
Method: as §2

THP-1 cells = experiment: Caspase 3/7 and 7-AAD staining (flow cytometry); details: doxorubicin alone at sublethal concentration (62.5 nM, 48 h)
HDAC6 [9] = target: T7, HDAC6; parameters: method as in PMID 22262760; details: cited from earlier work
[10] = K562, 120 h, ± standard deviation, three biological repeats
[11] = ± standard deviation, three biological repeats
[12] = THP-1, 120 h, ± standard deviation, three biological repeats
[13] = MOLM-13, 120 h, ± standard deviation, three biological repeats

T3 sequence (O15379 whole entry): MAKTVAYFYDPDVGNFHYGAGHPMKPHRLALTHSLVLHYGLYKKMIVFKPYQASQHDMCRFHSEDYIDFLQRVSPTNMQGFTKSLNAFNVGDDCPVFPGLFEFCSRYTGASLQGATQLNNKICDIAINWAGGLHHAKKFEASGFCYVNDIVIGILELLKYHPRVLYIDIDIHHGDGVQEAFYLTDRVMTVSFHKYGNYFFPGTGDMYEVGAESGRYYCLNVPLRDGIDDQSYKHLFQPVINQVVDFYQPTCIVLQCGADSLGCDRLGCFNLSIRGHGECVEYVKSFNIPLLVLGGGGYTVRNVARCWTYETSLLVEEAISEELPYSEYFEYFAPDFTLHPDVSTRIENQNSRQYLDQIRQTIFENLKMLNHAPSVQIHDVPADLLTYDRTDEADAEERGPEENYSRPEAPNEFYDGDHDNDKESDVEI
T3 sequence (Q9Y618 395-489 partner limits assumed): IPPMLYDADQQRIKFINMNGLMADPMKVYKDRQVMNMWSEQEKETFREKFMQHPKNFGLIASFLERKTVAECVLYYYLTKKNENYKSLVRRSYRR
T2 sequence (Q13547 whole entry): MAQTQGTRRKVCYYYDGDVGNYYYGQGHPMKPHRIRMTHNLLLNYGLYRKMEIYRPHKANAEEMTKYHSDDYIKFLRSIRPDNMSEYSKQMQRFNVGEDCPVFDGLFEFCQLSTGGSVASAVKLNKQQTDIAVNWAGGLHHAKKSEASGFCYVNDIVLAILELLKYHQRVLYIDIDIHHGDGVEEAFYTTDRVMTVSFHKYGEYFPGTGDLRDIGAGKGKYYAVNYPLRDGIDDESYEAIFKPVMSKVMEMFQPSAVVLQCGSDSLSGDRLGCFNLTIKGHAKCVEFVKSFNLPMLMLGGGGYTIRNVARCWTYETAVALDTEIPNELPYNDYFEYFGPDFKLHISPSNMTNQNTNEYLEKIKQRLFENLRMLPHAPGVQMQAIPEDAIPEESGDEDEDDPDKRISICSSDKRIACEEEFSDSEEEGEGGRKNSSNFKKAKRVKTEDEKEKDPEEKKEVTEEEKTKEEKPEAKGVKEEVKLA
T8 sequence (Q13547 whole entry): as above

Structure (SMILES) | IC50 (K-562; [10]) [µM] | cell viability after priming with compound and co-treatment with doxorubicin 2 nM (MOLM-13 [2]) | IC50 (Jurkat; [11]) [µM] | IC50 (LSD1 [3]) [µM] | IC50 (THP-1; [12]) [µM] | nuclear histone H3 acetylation (H3K18ac and H3K27ac levels), change vs DMSO ([4]; 4 μM) | IC50 [5] [µM] | IC50 (HDAC-3/NcoR2) [µM] | IC50 (MOLM-13 [6]; [13]) [µM] | thermal stabilization of LSD1 (CETSA) (LSD1 [7]) | IC50 (C-terminal His-tag-HDAC8) [µM] | IC50 (N-ter-GST-HDAC-6) [µM] | thermal stabilization of HDAC6 (CETSA) (HDAC6 [8]) | thermal stabilization of HDAC1 (CETSA) (HDAC1) | also measured
O=C(O)c1ccc(CN2CCC(CN[C@@H]3C[C@H]3c3ccccc3)CC2)cc1 [GSK2879552, reference compound] | > 20 | relatively ineffective | > 20 | 1.54 ± 0.41 | > 20 | did not significantly alter | > 100 | > 100 | 15 ± 3.5 | stabilizing LSD1 only | > 100 | > 100 | – | – | in vivo oral bioavailability [1]: favorable; levels of the histone substrate H3K4me2 ([4]; 4 μM, 24 h): increase; inhibition of MAOs (MAOs): undetectable levels of inhibition; inhibition of LSD2 (LSD2): undetectable levels of inhibition
O=C(O)c1ccc(CN2CCC(CNC3(c4ccccc4)CC3)CC2)cc1 [iNC] | > 20 | – | > 20 | > 100 | > 20 | – | > 100 | > 100 | > 20 | did not exhibit target engagement | > 100 | > 100 | did not exhibit target engagement | did not exhibit target engagement | thermal stabilization of HDAC8 (CETSA) (HDAC8): did not exhibit target engagement
COc1cccc2c1C(=O)c1c(O)c3c(c(O)c1C2=O)C[C@@](O)(C(=O)CO)C[C@@H]3O[C@H]1C[C@H](N)[C@H](O)[C@H](C)O1 [doxorubicin] | – | – | – | – | – | – | – | – | – | – | – | – | – | – | cells in the apoptosis/dead quadrant (caspase 3/7 staining), drug alone (THP-1 cells): 30%
O=C(CCCCCCNC(=O)c1cnc(N(c2ccccc2)c2ccccc2)nc1)NO [ricolinostat, reference compound] | – | next in terms of activity | – | – | – | greater effect | – | – | – | – | – | – | stabilizing HDAC6 | stabilized | IC50 (K-562; K562, 120 h): 2.6 ± 0.3 µM; IC50 (Jurkat): 1.9 ± 0.003 µM; IC50 (THP-1; THP-1, 120 h): 2.9 ± 0.1 µM; acetylation levels of α-tubulin, fold increase vs DMSO ([4]; 4 μM, 24 h): 25 fold; acetylation levels of α-tubulin, fold increase vs DMSO ([4]; ~0.75 μM (similar fraction of IC50), 24 h): 20 fold; IC50 (MOLM-13 [6]; MOLM-13, 120 h): 0.2 ± 0.03 µM; HDAC6/HDAC1 isoform selectivity reported (HDAC6 [9]): approximately 10 fold
